The target in test [1] is T1, Human Recombinant Gelatinase A (MMP-2) (Homo sapiens, UniProt P08253).
T1 sequence (P08253 110-660): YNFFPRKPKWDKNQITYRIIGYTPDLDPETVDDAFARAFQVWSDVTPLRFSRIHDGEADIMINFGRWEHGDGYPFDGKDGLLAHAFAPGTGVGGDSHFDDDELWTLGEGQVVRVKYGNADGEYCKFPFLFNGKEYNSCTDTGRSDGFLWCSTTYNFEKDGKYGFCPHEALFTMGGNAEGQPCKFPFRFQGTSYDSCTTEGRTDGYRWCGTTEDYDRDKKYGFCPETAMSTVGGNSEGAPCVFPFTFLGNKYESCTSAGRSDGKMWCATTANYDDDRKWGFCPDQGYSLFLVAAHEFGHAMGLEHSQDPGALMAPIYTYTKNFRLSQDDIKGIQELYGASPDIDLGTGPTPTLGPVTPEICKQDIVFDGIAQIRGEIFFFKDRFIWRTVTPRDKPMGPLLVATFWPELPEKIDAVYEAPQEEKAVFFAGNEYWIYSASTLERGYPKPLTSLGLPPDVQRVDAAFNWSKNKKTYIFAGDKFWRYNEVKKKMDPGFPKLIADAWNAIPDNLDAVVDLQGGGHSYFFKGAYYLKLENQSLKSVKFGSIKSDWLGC
In words: P218 quenched fluorescence assay for MMP inhibition: MMP-2. In kind it is biochemical.

Test [2] addresses T2, Recombinant Human CHO Stromelysin (MMP-3) (Homo sapiens, UniProt P08254).
T2 construct: made in house; host or cells: CHO cells (as described by Housley et al., J. Biol. Chem. 268, 4481, 1993)
The test is described as follows: P218 quenched fluorescence assay for MMP inhibition: MMP-3. In kind it is biochemical. The note with it: P218 substrate 6 μM, pH 6.5, 25 min at 37° C.; read-out: MMP-3 Fluorogenic IC-50. An excerpt: (§1) P218 Quenched Fluorescence Assay for MMP Inhibition:
(§2) The P218 quenched fluorescence assay (Microfluorometric Profiling Assay) is a modification of that originally described by Knight, et al., FEBS Lett. 296, 263, 1992 for a related substance and a variety of matrix metalloproteinases (MMPs) in cuvettes. The assay was run with each invention compound and the three MMPs, MMP-3, MMP-9 and MMP-2, analyzed in parallel, adapted as follows for a 96-well microtiter plate and a Hamilton AT® workstation.
(§3) P218 Fluorogenic Substrate:
(§4) P218 is a synthetic substrate containing a 4-acetyl-7-methoxycoumarin (MCA) group in the N-terminal position and a 3-[2,4-dinitrophenyl]-L-2,3-diaminopropionyl (DPA) group internally. This is a modification of a peptide reported by Knight (1992) that was used as a substrate for matrix metalloproteinases. Once the P218 peptide is cleaved (putative clip site at the Ala-Leu bond), the fluorescence of the MCA group can be detected on a fluorometer with excitation at 328 nm and emission at 393 nm. P218 is currently being produced BACHEM exclusively for Bayer. P218 has the structure:
(§5) H-MCA-Pro-Lys-Pro-Leu-Ala-Leu-DPA-Ala-Arg-NH2 (MW 1332.2)
Recombinant Human CHO Stromelysin (MMP-3)
Recombinant Human CHO Pro-MMP-3: Human CHO pro-stromelysin-257 (pro-MMP-3) was expressed and purified as described by Housley, et al., J. Biol. Chem. 268, 4481, 1993.
Activation of Pro-MMP-3: Pro-MMP-3 at 1.72 μM (100 μg/mL) in 5 mM Tris at pH 7.5, 5 mM CaCl2, 25 mM NaCl, and 0.005% Brij-35 MMP-3) activation buffer) was activated by incubation with TPCK (N-tosyl-(L)-phenylalanine chloromethyl ketone) trypsin (1:100 w/w to pro-MMP-3) at 25° C. for 30 min. The reaction was stopped by addition of soybean trypsin inhibitor (SBTI; 5:1 w/w to trypsin concentration). This activation protocol results in the formation of 45 kDa active MMP-3, which still contains the C-terminal portion of the enzyme.
(§6) Hamiltion Microlab AT Plus: The MMP-Profiling Assay is performed robotically on a Hamilton MicroLab AT Plus®. The Hamilton is programmed to: (1) serially dilute up to 11 potential inhibitors automatically from a 2.5 mM stock in 100% DMSO; (2) distribute substrate followed by inhibitor into a 96 well Cytofluor plate; and (3) add a single enzyme to the plate with mixing to start the reaction. Subsequent plates for each additional enzyme are prepared automatically by beginning the program at the substrate addition point, remixing the diluted inhibitors and beginning the reaction by addition of enzyme. In this way, all MMP assays were done using the same inhibitor dilutions.
(§7) Millipore Cytofluor II. Following incubation, the plate was read on a Cytofluor II fluorometric plate reader with excitation at 340 nm and emission at 395 nm with the gain set at 80.
(§8) Microfluorometric Reaction Buffer (MRB): Dilution of test compounds, enzymes, and P218 substrate for the microfluorometric assay were made in microfluorometric reaction buffer consisting of 50 mM 2-(N-morpholino)ethanesulfonic acid (MES) at pH 6.5 with 10 mM CaCl2, 150 mM NaCl, 0.005% Brij-35 and 1% DMSO.
(§9) MMP Microfluorometric Profiling Assay. The assay is done with a final substrate concentration of 6 μM P218 and approximately 0.5 to 0.8 nM MMP with variable drug concentrations. The Hamilton is programmed to serially dilute up to 11 compounds from a 2.5 mM stock (100% DMSO) to 10x the final compounds concentrations in the assay. Initially, the instrument delivers various amounts of microfluoromentric reaction buffer (MRB) to a 96 tube rack of 1 ml Marsh dilution tubes. The instrument then picks up 20 μl of inhibitor (2.5 mM) from the sample rack and mixes it with a buffer in row A of the Marsh rack, resulting in a 50 μM drug concentration. The inhibitors are then serially diluted to 10, 5, 1, 0.2, 0.05 and 0.01 μM. […]

For test [3], the target named is T3, Human Recombinant Gelatinase B (MMP-9) (Homo sapiens, UniProt P14780).
T3 construct: made in house; host or cells: baculovirus protein expression system
T3 sequence (P14780 107-707 limits assumed): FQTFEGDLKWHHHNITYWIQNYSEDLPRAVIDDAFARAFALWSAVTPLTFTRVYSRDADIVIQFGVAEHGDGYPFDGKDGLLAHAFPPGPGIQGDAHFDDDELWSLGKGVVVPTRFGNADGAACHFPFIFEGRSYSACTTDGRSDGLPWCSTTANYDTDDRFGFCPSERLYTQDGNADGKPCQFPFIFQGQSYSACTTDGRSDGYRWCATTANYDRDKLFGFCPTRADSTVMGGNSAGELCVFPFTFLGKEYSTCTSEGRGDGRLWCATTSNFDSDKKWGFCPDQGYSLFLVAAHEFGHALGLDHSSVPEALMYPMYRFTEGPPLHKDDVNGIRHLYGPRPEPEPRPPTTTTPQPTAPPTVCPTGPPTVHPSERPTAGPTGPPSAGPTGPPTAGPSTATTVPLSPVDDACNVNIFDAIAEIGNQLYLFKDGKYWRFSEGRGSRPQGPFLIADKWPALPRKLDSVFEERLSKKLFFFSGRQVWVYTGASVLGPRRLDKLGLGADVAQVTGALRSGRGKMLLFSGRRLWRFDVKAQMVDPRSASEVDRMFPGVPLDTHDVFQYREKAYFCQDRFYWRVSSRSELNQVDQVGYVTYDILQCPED
The test is described as follows: P218 quenched fluorescence assay for MMP inhibition: MMP-9. Conditions: P218 substrate 6 μM, pH 6.5, 25 min at 37° C.; for IC50: read-out: MMP-9 Fluorogenic IC-50; for MMP-9 Fluorogenic, I (percent inhibition): inhibitor concentration not given. In kind it is biochemical.
From the text: as §1, §2, §3, §4, §5
Preparation of Human Recombinant Pro-Gelatinase B (MMP-9):
Recombinant Human Pro-MMP-9: Human pro-gelatinase B (pro-MMP-9) derived from U937 cDNA as described by Wilhelm, et al. J. Biol. Chem. 264, 17213, 1989 was expressed as the full-length form using a baculovirus protein expression system. The pro-enzyme was purified using methods previously described by Hibbs, et al. J. Biol. Chem. 260, 2493, 1984.
Activation of Pro-MMP-9: Pro-MMP-2 20 μg/ml in 50 mM Tris at pH 7.4, 10 mM CaCl2, 150 mM NaCl, and 0.005% Brij-35 (MMP-9 activation buffer) was activated by incubation with 0.5 mM p-aminophenylmercuric acetate (APMA) for 3.5 h at 37° C. The enzyme was dialyzed against the same buffer to revmove the APMA.
as §6, §7, §8, §9

For test [4] the following is noted: Child, et al., J. Pharm. Sci. 66, 466, 1977; cited from earlier work.
Where [5] appears, read: P218 substrate 6 μM, pH 6.5, 25 min at 37° C., read-out: MMP-2 Fluorogenic IC-50.

Results on 19 compounds are retold here after patent US5968795A, “Biaryl acetylenes as inhibitors of matrix metalloproteases” (Bayer Corporation, priority 1997, dated 1999).

Where two headings read alike, the source gives them in different places.

T2 sequence (P08254 100-477): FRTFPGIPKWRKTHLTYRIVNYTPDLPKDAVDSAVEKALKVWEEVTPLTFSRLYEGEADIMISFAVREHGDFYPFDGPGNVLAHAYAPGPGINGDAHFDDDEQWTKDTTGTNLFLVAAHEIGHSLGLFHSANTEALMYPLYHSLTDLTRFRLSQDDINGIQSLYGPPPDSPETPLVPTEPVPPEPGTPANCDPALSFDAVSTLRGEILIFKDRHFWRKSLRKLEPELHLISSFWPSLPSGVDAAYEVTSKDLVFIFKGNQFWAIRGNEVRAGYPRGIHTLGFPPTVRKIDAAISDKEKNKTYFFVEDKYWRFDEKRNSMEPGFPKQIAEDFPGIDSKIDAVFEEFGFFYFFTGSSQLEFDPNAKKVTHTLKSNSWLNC

On to `O=C(CC(CCCc1ccccc1)C(=O)O)c1ccc(-c2ccc(C#Cc3ccccc3)cc2)cc1` (stereo not drawn) [XIII, λ-oxo-4'-(phenylethynyl)-α-(3-phenylpropyl)-[1,1'-biphenyl]-4-butanoic acid], for which the IC50 in test [1] (setting [5]) worked out at 245 nM; in test [2], 405 nM.

Take `CC(=O)OCCC#Cc1ccc(-c2ccc(C(=O)CC(CCCc3ccccc3)C(=O)O)cc2)cc1` (centres unmarked) [IX]: the IC50 in test [1] (setting [5]) came to 37 nM; in test [2], 57 nM; in test [3], 542 nM.

Take `O=C(CC(CCN1C(=O)c2ccccc2C1=O)C(=O)O)c1ccc(-c2ccc(C#CCOCc3ccccc3)cc2)cc1` (stereo not drawn) [Compound XV, 1,3-dihydro-1,3-dioxo-α-[2-oxo-2-[4'-[3(phenylmethoxy)-1-propynyl][1,1'-biphenyl]-4-yl]ethyl]-2H-isoindole-2-butanoic acid]: the IC50 in test [1] (setting [5]) amounted to 5 nM; in test [2] it was 11 nM; in test [3], 40 nM.

As for `O=C(O)CCC#Cc1ccc(-c2ccc(C(=O)CC(CCCc3ccccc3)C(=O)O)cc2)cc1` (stereo not drawn) [Compound X, 4'-(4-carboxy-1-butynyl)-λ-oxo-α-(3-phenylpropyl)-[1,1'-biphenyl]-4-butanoic acid], the IC50 in test [1] (setting [5]) was 108 nM; in test [2] it was 203 nM. The “MMP-9 Fluorogenic, I (percent inhibition)” value in test [3] came out at 27%.

With `O=C(O)CC(C(=O)c1ccc(-c2ccccc2)cc1)c1ccccc1` (centres unmarked) [LXXVII], in test [4], the “anti-inflammatory activity (in words)” value was “inactive”.

Turning to `CC(=O)OCC#Cc1ccc(-c2ccc(C(=O)CC(CCCc3ccccc3)C(=O)O)cc2)cc1` (stereo not drawn) [Compound VI, 4'-[3-(acetyloxy)-1-propynyl]-λ-oxo-α-(3-phenylpropyl)-[1,1'-biphenyl]-4-butanoic acid], the IC50 in test [1] (setting [5]) turned out to be 14 nM; in test [2] it was 36 nM; in test [3], 834 nM.

On to `O=C(CC(CCCc1ccccc1)C(=O)O)c1ccc(-c2ccc(C#CCCO)cc2)cc1` (stereo not drawn) [VIII, 4'-(4-hydroxy-1-butynyl)-λ-oxo-α-(3-phenylpropyl)-[1,1'-biphenyl]-4-butanoic acid], for which the IC50 in test [1] (setting [5]) amounted to 6 nM; in test [2] it was 32 nM; in test [3] it was 122 nM.

For `O=C(CC(CCCc1ccccc1)C(=O)O)c1ccc(-c2ccc(C#CCCCCO)cc2)cc1` (centres unmarked) [XII], the IC50 in test [1] (setting [5]) was 36 nM; in test [2], 56.6 nM; in test [3], 614 nM.

Consider `O=C(CC(CCN1C(=O)c2ccccc2C1=O)C(=O)O)c1ccc(-c2ccc(C#CCO)cc2)cc1` (centres unmarked) [Compound XVI], for which the values for the IC50 in test [1], in test [2] and in test [3] were 1 nM, 4 nM and 2 nM, respectively.

Regarding `O=C(C[C@H](CCCc1ccccc1)C(=O)O)c1ccc(-c2ccc(C#CCO)cc2)cc1` [II, S-4'-(3-hydroxy-1-propynyl)-λ-oxo-α-(3-phenylpropyl)-[1,1'-biphenyl]-4-butanoic acid], the IC50 in test [1] (setting [5]) turned out to be 252 nM; in test [2], 2180 nM. For the same compound, the “MMP-9 Fluorogenic, I (percent inhibition)” value in test [3] is 35%.

Turning to `CCCN(CC#Cc1ccc(-c2ccc(C(=O)CC(CCCc3ccccc3)C(=O)O)cc2)cc1)CCC` (centres unmarked) [Compound V], the IC50 in test [1] (setting [5]) amounted to 235 nM; in test [2], 327 nM; in test [3] it was 2630 nM.

Take `O=C(CC(CCCc1ccccc1)C(=O)O)c1ccc(-c2ccc(C#CCO)cc2)cc1` (racemic) [Compound I]: the figures for the IC50 in test [1] (setting [5]), in test [2] and in test [3] were 4 nM, 21 nM and 106 nM, respectively.

With `CCOC(=O)OCC#Cc1ccc(-c2ccc(C(=O)CC(CCCc3ccccc3)C(=O)O)cc2)cc1` (stereo not drawn) [Compound VII, 4'-[3-[(ethoxycarbonyl)oxy]-1-propynyl]-λ-oxo-α-(3-phenylpropyl)-[1,1'-biphenyl]-4-butanoic acid], the IC50 turned out to be 103 nM in test [1] (setting [5]), 67 nM in test [2] and 2460 nM in test [3].

With `O=C(CC(C(=O)O)c1ccccc1)c1ccc(-c2ccccc2)cc1` (centres unmarked) [XLIX], the “anti-inflammatory activity (in words)” value in test [4] is “inactive”.

For the compound `O=C(C[C@@H](CCCc1ccccc1)C(=O)O)c1ccc(-c2ccc(C#CCO)cc2)cc1` [III], the figures for the IC50 in test [1] (setting [5]), in test [2] and in test [3] were 1 nM, 5 nM and 37 nM, respectively.

As for `O=CCCCC#Cc1ccc(-c2ccc(C(=O)CC(CCCc3ccccc3)C(=O)O)cc2)cc1` (stereo not drawn) [Compound XI, λ-oxo-4'-(5-oxo-1-pentynyl)-α-(3-phenylpropyl)-[1,1'biphenyl]-4-butanoic acid], the IC50 worked out at 596 nM in test [1] (setting [5]) and 1730 nM in test [2]. The “MMP-9 Fluorogenic, I (percent inhibition)” value in test [3] is on record as 24%.

For the compound `O=C(CC(CCCc1ccccc1)C(=O)O)c1ccc(-c2ccc(C#Cc3cccc(O)c3)cc2)cc1` (centres unmarked) [XIV], the IC50 in test [1] (setting [5]) is 85 nM; in test [2], 125 nM. Also, in test [3], the “MMP-9 Fluorogenic, I (percent inhibition)” value was 46%.

With `CC(CC(=O)c1ccc(-c2ccccc2)cc1)C(=O)O` (centres unmarked) [compound XLVII], the “anti-inflammatory activity (in words)” value in test [4] is “inactive”.

Regarding `COCC#Cc1ccc(-c2ccc(C(=O)CC(CCCc3ccccc3)C(=O)O)cc2)cc1` (stereo not drawn) [IV, 4'-(3-methoxy-1-propynyl)-λ-oxo-α-(3-phenylpropyl)-[1,1'-biphenyl]-4-butanoic acid], the IC50 in test [1] (setting [5]) was 21 nM; in test [2], 38 nM; in test [3], 704 nM.
